Results from US20100298245A1, “Pharmaceutical Composition for the Treatment of IL-8 mediated diseases” (Revotar Biopharmaceuticals AG, priority 2007, published 2010).

System: Interleukin 8 (IL-8)
Test: Human clinical trial in COPD patients: IL-8 level in induced sputum supernatant (enzyme immunoassay)
Assay type: in vivo
Method: A human clinical trial (trial) was conducted to investigate effects of the disodium salt of compound of formula (I) (1,6-Bis [3-(3-carboxymethylphenyl)-4-(2-α-D-mannopyranosyloxy)-phenyl] hexan) on patients with chronic obstructive pulmonary disease (COPD). The trial was carried out according to known methods and according to the “good clinical practices” (GCP), applicable regulatory requirements, and was based on written approval of the Independent Ethics Committee (IEC). Patients were enrolled in the trial based on inclusion and exclusion criteria known.
Patients were treated by inhalation of the disodium salt of the compound of formula (I) for 10 days. The unit dose strength for nebulization was 70 mg in 4 ml of 0.9% NaCl twice a day (bid). To investigate laboratory parameters the procedure of induced sputum (IS) was used to harvest cells and sputum supernatant for further analysis.
To investigate levels of Interleukin 8 (IL-8) in the sputum supernatant, sputum was frozen after collection. Once, all samples were collected, levels of IL-8 were analyzed by using a commercial available enzyme immunoassay for the in vitro quantification of human IL-8 in biological fluids. IL-8 sample concentrations were determined employing calibration curves.

O=C(O)Cc1cccc(-c2cc(CCCCCCc3ccc(O[C@H]4O[C@H](CO)[C@@H](O)[C@H](O)[C@@H]4O)c(-c4cccc(CC(=O)O)c4)c3)ccc2O[C@H]2O[C@H](CO)[C@@H](O)[C@H](O)[C@@H]2O)c1 [compound of formula (I), 1,6-Bis [3-(3-carboxymethylphenyl)-4-(2-α-D-mannopyranosyloxy)-phenyl] hexane]
median value of levels of IL8 in sputum supernatant after treatment (COPD patients, induced sputum supernatant, after inhalation of disodium salt 70 mg in 4 ml 0.9% NaCl bid for 10 days, Mann-Whitney Rank Sum Test p=0.031 vs before): 4985 pg/mL
median value of levels of IL8 in sputum supernatant before treatment (COPD patients, induced sputum supernatant, baseline before inhalation treatment): 15419 pg/mL
change of the IL-8 medians (after vs before treatment, inhalation 70 mg bid for 10 days, statistically significant (p=0.031) and clinically relevant): −68%
